Reference: US20030095982A1, “Fraction of Cordyceps sinensis and method of isolation thereof” (priority 2001, published 2003)

Key:
[1] = Ames test; format: cell-based
Experimental: B: Compound F8: This refers to F8 (for spectroscopic and structural data, see FIG. 2a, 2b, and 3). The molecular formula of compound F8 is C28H46O3. To confirm the potential applicability of the above fractions and to check for obvious toxicity or mutagenicity, Ames test and acute toxicity test were conducted on white mice (ICR-mice) using the F4 fraction or compound F8.

[2] = tested on: ovalbumin (OA) induced bronchial hyperresponsiveness; assay: Histological examination of lung tissue in asthma model; format: in vivo, brown Norway rats (BNR); conditions: prophylactic and therapeutic treatment
Experimental: After BAL, each animal's chest was opened and the lungs were removed. The trachea and right lower lobe was fixed in 10% formaldehyde, dehydrated by different concentrations of alcohol, then embedded in paraffin, and cut into 4 μm thicknesses, stained with haematoxylin and eosin, and examined by light microscope. Histologic specimens (n=6 per each time point) were prepared. The trachea and each lobe were fixed in 10% formaldehyde, dehydrated by different concentrations of alcohol, then embedded in paraffin, and cut into 4 μm thicknesses; stained with haematosylin and eosin, and examined by light microscope for evaluation of the severity of inflammation. Each trachea and lung section was blindly assigned an inflammation score by two pathologists as follows; 1=rare or occasional inflammation cells scattered through the lung or trachea; 3=abundant inflammatory cells scattered through the lung or trachea; 2=inflammatory cells between the levels of 1 and 3. The total inflammation score for each animal was calculated as mean of the scores for 5 lung sections and trachea.

[3] = tested on: platelet aggregation induced by PAF; assay: PAF induced rabbit platelet aggregation in vitro; format: cell-based; conditions: 0.625 mM; washed rabbit platelets; PAF 2 nM; preincubated 2 min
From the text: In terms of inhibition, PAF induced rabbit platelete aggregation is used as an index of PAF function inhibition. It was used as the first step in vitro screening method for identifying potential substances which are capable of inhibiting PAF function and may improve bronchial hyperresponsiveness in vivo.
Washed platelets were obtained from rabbits. In brief, rabbit blood was collected from the marginal ear vein into tubes containing one-sixth volume of acid-citrate-dextrose as anticoagulant. The blood was centrifuged at 200×g for 15 min at room temperature. The platelet-rich plasma was mixed with 1/40 volume of EDTA (final concentration 5 mM) and re-centrifuged at 1000×g for 12 min. The supernatant was discarded and the platelet pellet was suspended in modified Ca^2+-free Tyrode's buffer (137 mM NaCl, 2.8 mM KCl, 2 mM MgCl2, 0.33 mM NaH2PO4, 5 mM glucose, 10 mM HEPES) with 0.35% bovine serum albumin, heparin (50 unit/ml) and apyrase (1 unit/ml). Following incubation at 37° C. for 20 min, the washed platelet pellet was resuspended in Tyrode's buffer containing 1 mM Ca^2+. The platelet number were counted by using a hemocytometer and adjusted to 3.5×10^8 platelets/ml. […] Aggregation was measured by a turbidimetric method. […] The inhibitory activities of F-4 and F-8 on platelet aggregation induced by PAF were calculated according the equation: [formula]

[4] = tested on: ovalbumin (OA) induced bronchial hyperresponsiveness; assay: Bronchoalveolar lavage cell counts, OA model in BNR; format: in vivo, brown Norway rats (BNR)
Experimental: After completion of the pulmonary function tests, BAL was performed using 10 mL normal saline twice (total 20 mL) for BNR or guinea pig. The BAL fluid was collected into plastic flasks containig 1,500 units of heparin and then strained through 1 layer of surgical gauze and centrifuged at 500 g for 5 min. The cell pellet was washed 3 times with sterile saline solution and resuspended in RPMI-1640. A small portion was taken for evaluation of cell number and viability, as assessed by trypan blue exclusion.
Differential counts were obtained using a cytocentrifuge preparation (Cytospin; Shandon Southern Instruments, Sewickley, Pa.) stained with Liu's stain (modified May-Giemsa stain).

[5] = BAL fluid, 4 mg/Kg intraperitoneally 30 minutes before OA inhalation provocation

Compound: CC(C)[C@@H](C)C=C[C@@H](C)[C@H]1CC[C@H]2C3=C[C@@H](O)[C@@]4(O)C[C@@H](O)CC[C@]4(C)[C@H]3CC[C@]12C [F8, (24R)-ergosta-7,22-diene-3β, 5α, 6β,-triol]
- mutagenicity (Ames test) [1]: no obvious evidence of toxicity or mutagenic properties
- pulmonary histological change [2]: improve pulmonary histological change
- Inhibitory Activity (%) [3]: 97±2.6%
- Eosinophil Cell count [4, 5]: 4.26 ± 0.5 (×10^4)/mL
- Eosinophil Percentage of total cell count (%) [4, 5]: 28.8 ± 4.5 %
- Lymphocyte Cell count [4, 5]: 3.37 ± 0.51 (×10^4)/mL
- Lymphocyte Percentage of total cell count (%) [4, 5]: 22.8 ± 4.5 %
- Macrophage Cell count [4, 5]: 6.85 ± 0.64 (×10^4)/mL
- Macrophage Percentage of total cell count (%) [4, 5]: 46.3 ± 5.5 %
- Neutrophil Cell count [4, 5]: 0.31 ± 0.4 (×10^4)/mL
- Neutrophil Percentage of total cell count (%) [4, 5]: 2.1 ± 0.5%
- Total cell count [4, 5]: 14.8 ± 3.2 (×10^4)/mL
- BAL total cell counts, eosinophils and lymphocytes versus group II ([4]; treatment study (administered after OA inhalation provocation)): Group II had higher total cell counts than the other 2 groups
